Measured values as given in patent US20070270434A1, “SULFONYL-SUBSTITUTED BICYCLIC COMPOUNDS AS MODULATORS OF PPAR” (KALYPSYS, INC., priority 2006, published 2007).

Legend:
Format in all cases: cell-based, murine and human
Details in all cases: 20-24 hours
[1] = molecular target: T1, PPAR-alpha ligand binding domain fused to GAL4 DNA binding domain (UniProt Q07869); experiment: Transient transfection transactivation assay in CV-1 cells, PPAR-alpha (GAL4 chimera, luciferase reporter)
T1 sequence (Q07869 1-468): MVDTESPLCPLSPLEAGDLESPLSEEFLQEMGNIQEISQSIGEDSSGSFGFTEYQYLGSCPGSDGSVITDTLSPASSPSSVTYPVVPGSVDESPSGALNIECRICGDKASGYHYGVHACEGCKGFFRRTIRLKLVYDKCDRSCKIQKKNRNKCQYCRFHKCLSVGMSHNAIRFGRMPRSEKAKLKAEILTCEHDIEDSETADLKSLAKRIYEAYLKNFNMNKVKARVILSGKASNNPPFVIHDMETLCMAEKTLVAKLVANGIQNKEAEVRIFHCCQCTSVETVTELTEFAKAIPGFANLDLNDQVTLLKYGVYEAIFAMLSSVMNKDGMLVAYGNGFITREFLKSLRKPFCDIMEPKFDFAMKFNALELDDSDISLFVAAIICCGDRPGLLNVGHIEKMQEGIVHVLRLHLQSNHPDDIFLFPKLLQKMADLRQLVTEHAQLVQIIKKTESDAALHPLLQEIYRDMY
From the text: (§1) Compounds may be screened for functional potency in transient transfection assays in CV-1 cells for their ability to activate the PPAR subtypes (transactivation assay). A previously established chimeric receptor system was utilized to allow comparison of the relative transcriptional activity of the receptor subtypes on the same synthetic response element and to prevent endogenous receptor activation from complicating the interpretation of results. See, for example, Lehmann, J. M.; Moore, L. B.; Smith-Oliver, T. A; Wilkinson, W. O.; Willson, T. M.; Kliewer, S. A., An antidiabetic thiazolidinedione is a high affinity ligand for peroxisome proliferator-activated receptor […], J. Biol. Chem., 1995, 270, 12953-6. The ligand binding domains for murine and human PPAR-alpha, PPAR-gamma, and PPAR-delta are each fused to the yeast transcription factor GAL4 DNA binding domain. CV-1 cells were transiently transfected with expression vectors for the respective PPAR chimera along with a reporter construct containing four or five copies of the GAL4 DNA binding site driving expression of luciferase. After 8-16 h, the cells are replated into multi-well assay plates and the media is exchanged to phenol-red free DME medium supplemented with 5% delipidated calf serum. 4 hours after replating, cells were treated with either compounds or 1% DMSO for 20-24 hours. Luciferase activity was then assayed with Britelite (Perkin Elmer) following the manufacturer's protocol and measured with either the Perkin Elmer Viewlux or Molecular Devices Acquest (see, for example, Kliewer, S. A., et. al. Cell 1995, 83, 813-819). Rosiglitazone is used as a positive control in the PPARγ assay. Wy-14643 and GW7647 are used as positive controls in the PPARα assay. GW501516 is used as the positive control in the PPARδ assay.

[2] = molecular target: T2, PPAR-delta ligand binding domain fused to GAL4 DNA binding domain (UniProt Q03181); experiment: Transient transfection transactivation assay in CV-1 cells, PPAR-delta (GAL4 chimera, luciferase reporter)
T2 sequence (Q03181 1-441): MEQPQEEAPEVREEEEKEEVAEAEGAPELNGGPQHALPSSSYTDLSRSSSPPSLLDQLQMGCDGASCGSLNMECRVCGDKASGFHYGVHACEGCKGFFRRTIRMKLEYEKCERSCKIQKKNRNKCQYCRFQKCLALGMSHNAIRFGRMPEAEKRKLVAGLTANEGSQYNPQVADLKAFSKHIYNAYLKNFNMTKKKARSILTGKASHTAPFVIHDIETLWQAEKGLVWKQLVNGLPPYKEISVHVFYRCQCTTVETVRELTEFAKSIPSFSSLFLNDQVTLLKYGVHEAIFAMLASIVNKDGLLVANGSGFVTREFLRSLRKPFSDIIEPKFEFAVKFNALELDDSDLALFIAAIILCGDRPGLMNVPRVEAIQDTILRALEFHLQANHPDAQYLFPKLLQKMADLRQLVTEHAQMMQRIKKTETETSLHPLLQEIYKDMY
From the text: as §1

[3] = molecular target: T3, PPAR-gamma ligand binding domain fused to GAL4 DNA binding domain (UniProt P37231); experiment: Transient transfection transactivation assay in CV-1 cells, PPAR-gamma (GAL4 chimera, luciferase reporter)
T3 sequence (P37231 1-505): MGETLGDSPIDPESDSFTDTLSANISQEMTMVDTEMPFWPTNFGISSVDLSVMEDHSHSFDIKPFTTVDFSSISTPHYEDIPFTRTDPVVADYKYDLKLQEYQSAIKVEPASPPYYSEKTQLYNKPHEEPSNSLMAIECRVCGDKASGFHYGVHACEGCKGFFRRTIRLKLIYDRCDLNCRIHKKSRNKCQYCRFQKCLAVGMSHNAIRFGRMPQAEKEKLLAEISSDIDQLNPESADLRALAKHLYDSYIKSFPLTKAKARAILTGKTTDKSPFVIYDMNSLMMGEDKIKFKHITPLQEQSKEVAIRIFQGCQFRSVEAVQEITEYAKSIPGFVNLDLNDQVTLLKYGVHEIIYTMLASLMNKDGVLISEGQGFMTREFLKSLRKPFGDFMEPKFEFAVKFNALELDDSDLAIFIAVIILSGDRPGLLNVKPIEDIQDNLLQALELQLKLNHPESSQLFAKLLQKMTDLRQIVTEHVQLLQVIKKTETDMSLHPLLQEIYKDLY
From the text: as §1

Structure (SMILES) | EC50 [1] | EC50 [2] | EC50 [3]
C[C@@H]1CN(CCc2ccc(C(F)(F)F)cc2)C[C@H](C)N1S(=O)(=O)c1cccc2c1CC(C(=O)O)C2 (mixture of isomers) [Example 14A, 4-(cis-2,6-Dimethyl-4-(4-(trifluoromethyl)phenethyl)piperazin-1-ylsulfonyl)-2,3-dihydro-1H-indene-2-carboxylic acid] | > 100 µM | < 5 µM | > 100 µM
C[C@@H]1CN(Cc2cccc(OC(F)(F)F)c2)C[C@H](C)N1S(=O)(=O)c1cccc2c1CC(C(=O)O)C2 (stereo partly drawn) [Example 3, 4-[cis-2,6-Dimethyl-4-(3-(trifluoromethoxy)benzyl)piperazine-1-sulfonyl]-2,3-dihydro-1H-indene-2 carboxylic acid] | > 100 µM | < 5 µM | 5 to 100 µM
C[C@@H]1CN(Cc2ccc(OC(F)(F)F)c(Cl)c2)C[C@H](C)N1S(=O)(=O)c1cccc2c1CC(C(=O)O)C2 (stereo partly drawn) [Example 4, 4-(4-(3-Chloro-4-(trifluoromethoxy)benzyl)-cis-2,6-dimethylpiperazin-1-ylsulfonyl)2,3-dihydro-1H-indene-2-carboxylic acid] | 5 to 100 µM | < 5 µM | 5 to 100 µM
C[C@@H]1CN(Cc2ccc(OC(F)(F)F)c(F)c2)C[C@H](C)N1S(=O)(=O)c1cccc2c1CC(C(=O)O)C2 (stereo partly drawn) [Example 5] | 5 to 100 µM | < 5 µM | 5 to 100 µM
C[C@@H]1CN(C(=O)Cc2ccc(OC(F)(F)F)cc2)C[C@H](C)N1S(=O)(=O)c1cccc2c1CC(C(=O)O)C2 (stereo partly drawn) [Example 7, 4-(cis-2,6-Dimethyl-4-(2-(4-(trifluoromethoxy)phenyl)acetyl)piperazin-1-ylsulfonyl)-2,3-dihydro-1H-indene-2-carboxylic acid] | > 100 µM | < 5 µM | > 100 µM

Further lines, results first:

EC50 [1] | EC50 [2] | EC50 [3] | Structure (SMILES)
> 100 µM | < 5 µM | > 100 µM | C[C@@H]1CN(CCc2ccc(OC(F)(F)F)cc2)C[C@H](C)N1S(=O)(=O)c1cccc2c1CC(C(=O)O)C2 (mixture of isomers) [Example 12A, 4-(cis-2,6-Dimethyl-4-(4-(trifluoromethoxy)phenethyl)piperazin-1-ylsulfonyl)-2,3-dihydro-1H-indene-2-carboxylic acid]
> 100 µM | < 5 µM | > 100 µM | C[C@@H]1CN(Cc2ccc(C(F)(F)F)c(F)c2)C[C@H](C)N1S(=O)(=O)c1cccc2c1CC(C(=O)O)C2 (stereo partly drawn) [Example 1, 4-(4-(3-Fluoro-4-(trifluoromethyl)benzyl)-cis-2,6-dimethylpiperazin-1-ylsulfonyl)-2,3-dihydro-1H-indene-2-carboxylic acid]
> 100 µM | < 5 µM | < 5 µM | O=C(O)C1Cc2cccc(S(=O)(=O)N3CCN(Cc4cccc(OC(F)(F)F)c4)CC3)c2C1 (stereo not drawn) [Example 2]
5 to 100 µM | < 5 µM | 5 to 100 µM | C[C@@H]1CN(Cc2ccc(SC(F)(F)F)cc2)C[C@H](C)N1S(=O)(=O)c1cccc2c1CC(C(=O)O)C2 (stereo partly drawn) [Example 6, 4-(cis-2,6-Dimethyl-4-(4-(trifluoromethylthio)benzyl)piperazin-1-ylsulfonyl)-2,3-dihydro-1H-indene-2-carboxylic acid]
> 100 µM | < 5 µM | > 100 µM | C[C@@H]1CN(C(=O)CCc2ccc(OC(F)(F)F)cc2)C[C@H](C)N1S(=O)(=O)c1cccc2c1CC(C(=O)O)C2 (stereo partly drawn) [Example 8, 4-(cis-2,6-Dimethyl-4-(3-(4-(trifluoromethoxy)phenyl)propanoyl)piperazin-1-ylsulfonyl)-2,3-dihydro-1H-indene-2-carboxylic acid]
> 100 µM | 5 to 100 µM | > 100 µM | C[C@@H]1CN(C(=O)c2ccc(OC(F)(F)F)cc2)C[C@H](C)N1S(=O)(=O)c1cccc2c1CC(C(=O)O)C2 (stereo partly drawn) [Example 9, 4-(cis-2,6-Dimethyl-4-(4-(trifluoromethoxy)benzoyl)piperazin-1-ylsulfonyl)-2,3-dihydro-1H-indene-2-carboxylic acid]
